# Several values for one entry are separate records, joined by “and”; a condition that tells them apart may be missing. Equal values may be shown once. Read-outs that look alike come from different tables or passages of the source.
# Experiments:
# RhoA = RhoA (Homo sapiens, UniProt P61586); assay: Multiplex bead-based flow cytometry dose-response of fluorescent guanine nucleotide binding; conditions: EC50 RhoA
# Protocol: Briefly, individual GST-GTPases were separately attached to glutathione microsphere beads that were labeled with varying intensity of red fluorescent dye, and subsequently combined. The buffer contains 30 mM HEPES (pH 7.2), 150 mM KCl, 20 mM NaCl, 0.1% BSA, 1 mM DTT, 1 mM EDTA and 0.1% NP-40. For Rho A and Rac1, 1 mM EDTA was replaced with 1 mM MgCl2 to stabilize the protein. […] To study whether the compounds are slow binders, BODIPY^- FL GTP was added either immediately or 2 h after compound addition. […] The curves were fitted to the sigmoidal dose-response equation using GraphPad Prism. Percent response was calculated as the ratio of (sample MCF–negative control MCF) / (positive control MCF–negative control MCF).
# SCC-12F cells = assay: Cytotoxicity (CellTiter-Glo); assay type: cell-based; conditions: up to 100 µM; 24 h and 3 h
# Protocol: (§1) S3 Fig. Cytotoxicity of 1 and analogues. […]
# (§2) µM over the experimental time frame. Compounds tested in the U937ΔST cells for 24 h (A) and (B), and for 1 h (C). Compounds tested in SCC-12F cells for 24 h (D) and (E), and for 3 h (F-I). Data are reported as ratios of luminescence to that of the DMSO treated control.
# (§3) (1 picture or pasted object on this page, not shown here)
# (§4) FITC-LDV dissociation assay
# (§5) The dissociation kinetics of FITC-LDV was measured by flow cytometry following the addition of 100-fold excess of non-fluorescent LDV. (The kinetic constants obtained are the same within experimental error whether adding 100-fold or 200-fold excess non-fluorescent LDV). The fluorescence decrease was recorded (see B in S2 Fig.). For the resting state, when a fluorescence plateau was reached after the addition of LDV-FITC, LDV was added to the cell suspension. For the high affinity state, when the fluorescence reached equilibrium after the sequential addition of LDV-FITC and N-formyl peptide, LDV was added. To study the effect of a compound, LDV was added at the time point when the fluorescence approached a […]. The fluorescence decrease curve was fitted to Equation 2 to obtain the dissociation rate constant koff. […] Therefore the binding affinity can also be estimated by comparing the measured koff. […]
# U937 FPRΔST cells = assay: Cytotoxicity (CellTiter-Glo); assay type: cell-based; conditions: up to 100 µM; 24 h and 1 h
# Protocol: as §1, §2, §3, §4, §5
# [1] = Solubility in PBS and assay media; assay type: physicochemical
# Protocol: page 7: conclusion, the available data support the idea that compound CID1067700 has non-classical competitive character. […] Solubility was measured in phosphate buffered saline (PBS) at room temperature (23 °C). PBS by definition is 137 mM NaCl, 2.7 mM KCl, 10 mM sodium phosphate dibasic, 2 mM potassium phosphate [monobasic and a pH of 7.4. Detection was based on UV absorbance. […] Solubility was also assessed in the each of the four media used in the individual assays. […] Table 1S. […] Stability, depicted as closed circles in the graph, was assessed at room temperature (23 °C) in PBS (no antioxidants or other protectants and DMSO concentration below 0.1%). Stability data is depicted in Fig. S8 showing the loss of compound with time over a 48 h period with a minimum of 6 time points and providing the percent remaining compound at end of the 48 h period. Under these conditions, 77% of 1 remains after 48 hours. The degradation has not been further characterized.
# H-Ras = H-Ras (Homo sapiens, UniProt P01112); assay: Multiplex bead-based flow cytometry dose-response of fluorescent guanine nucleotide binding
# H-Ras, sequence (P01112 whole entry): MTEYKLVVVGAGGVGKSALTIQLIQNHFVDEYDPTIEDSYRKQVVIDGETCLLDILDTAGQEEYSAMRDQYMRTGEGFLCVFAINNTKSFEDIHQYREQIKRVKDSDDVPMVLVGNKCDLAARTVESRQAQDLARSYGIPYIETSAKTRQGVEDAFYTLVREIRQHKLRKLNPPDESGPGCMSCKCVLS
# Protocol: Briefly, individual GST-GTPases were separately attached to glutathione microsphere beads that were labeled with varying intensity of red fluorescent dye, and subsequently combined. The buffer contains 30 mM HEPES (pH 7.2), 150 mM KCl, 20 mM NaCl, 0.1% BSA, 1 mM DTT, 1 mM EDTA and 0.1% NP-40. […] To study whether the compounds are slow binders, BODIPY^- FL GTP was added either immediately or 2 h after compound addition. […] The curves were fitted to the sigmoidal dose-response equation using GraphPad Prism. Percent response was calculated as the ratio of (sample MCF–negative control MCF) / (positive control MCF–negative control MCF).
# [2] = system: EGFR degradation regulated by Rab GTPases, SCC-12F cells; assay: EGFR degradation in SCC-12F cells; assay type: cell-based; conditions: EGF 20 nM, 0-120 min, versus DMSO
# Protocol: SCC-12F cells were seeded in 12-well plates at 0.12 x 10^6 cells/well and allowed to attach overnight. On the day of the experiment, the cells were starved in serum free medium containing 25 μg/mL cycloheximide for 2 h before compounds at different concentrations were added. The cells were treated with compound or DMSO for 0.5 h followed by the addition of ligand EGF at 20 nM. At time 0, 15, 30, 60, and 120 min, the suspension medium was removed and the cells were quickly washed with cold PBS and frozen at -80°C. For electrophoresis and blotting, CellLyticM Cell Lysis buffer containing protease inhibitor cocktails was added to the frozen cells and the protein concentrations were quantified using the Bradford assay. For SDS-PAGE, 10 μg of protein was loaded on each lane. After transblotting, the nitrocellulose membrane was probed with Anti-EGFR and Anti-actin primary antibody and secondary goat anti-rabbit IgG antibody with conjugated peroxidase. Actin served as a loading control. After adding the substrate SuperSignal West Dura, specific band signal was detected with ChemiDoc XRS+ molecular imager and the intensity was quantified using Image Lab software. Experiments were carried out either in duplicate and repeated or in triplicate. Results are given as the ratios of EGFR/actin at time t and EGFR/actin at time 0.
# Rac1 Q61L = Rac1 Q61L (Homo sapiens, UniProt P63000, Q61L); assay: Multiplex bead-based flow cytometry dose-response of fluorescent guanine nucleotide binding; conditions: EC50 Rac1 Q61L
# [3] = concentration dependence on BODIPY-FL GDP
# RhoA, sequence (P61586 whole entry): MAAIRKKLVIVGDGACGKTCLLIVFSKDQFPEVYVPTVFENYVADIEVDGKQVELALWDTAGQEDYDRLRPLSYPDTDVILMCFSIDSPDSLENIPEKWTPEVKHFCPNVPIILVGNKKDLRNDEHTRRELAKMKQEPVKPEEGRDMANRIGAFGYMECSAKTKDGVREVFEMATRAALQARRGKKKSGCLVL
compound,measurement,setting,value
CC1(C)Cc2c(sc(NC(=S)NC(=O)c3ccccc3)c2C(=O)O)CO1 [Compound 1],EC50,"RhoA; BODIPY-FL GTP binding, 2 h at 4°C, 1 mM MgCl2",62 ± 49 nM
same,EC50,RhoA; [3],100 nM
same,toxicity,SCC-12F cells,did not show toxicity
same,toxicity,U937 FPRΔST cells,did not show toxicity
same,solubility,"[1]; Dose Response-buffer (HEPES buffer), 23 °C, aqueous with cosolvent or surfactant or cyclodextrin, 30mM HEPES, pH 7.5, 100mM KCl, 20mM NaCl, 0.01% (v/v) NP-40, read-out: Solubility, Dose Response-buffer",> 68.1 µg/mL and > 174 µM
same,solubility,"[1]; EGFR degradation assay medium, DMEM/F-12, read-out: Solubility, EGFR degradation assay medium",> 116 µg/mL and > 297 µM
same,solubility,"[1]; LDV-FITC assay buffer, RPMI 1640 + 10% HI-FBS, read-out: Solubility, LDV-FITC assay buffer",> 116 µg/mL and > 297 µM
same,solubility,"[1]; phosphate buffered saline (PBS), PBS pH 7.4, 23 °C, read-out: PBS solubility",> 116 µg/mL and > 297 µM
same,EC50,"H-Ras; EC50 H-Ras, BODIPY-FL GTP binding, 2 h at 4°C",160 ± 160 nM
same,EC50,"H-Ras; EC50 H-Ras, concentration dependence on BODIPY-FL GDP",240 nM
same,EC50,"H-Ras; EC50 Ras, with 2 h incubation before BODIPY-FL GTP",100 ± 3.5 nM
same,EC50,"H-Ras; EC50 Ras, without incubation before BODIPY-FL GTP",130 ± 2.6 nM
same,EGFR degradation,[2],delayed EGFR degradation
same,EC50,"Rac1 Q61L; BODIPY-FL GTP binding, 2 h at 4°C",75 ± 59 nM
same,EC50,Rac1 Q61L; [3],120 nM

# From publication PMC4527730, “A Pan-GTPase Inhibitor as a Molecular Probe” (PLoS ONE, 2015)
